From PMC5949603, “Bridged bicyclic peptides as potential drug scaffolds: synthesis, structure, protein binding and stability” (Chemical Science, 2015)
Values belong to the compound of their own block, whether it stands above or below them. Where a SMILES comes first, the peptide text is derived from it. Bridges are numbered along the chain shown (N, C = ends). [ ]: non-standard residue; d: D form.

Legend:
Human calmodulin (CALM1) = target: T1, Human calmodulin (CALM1) (Homo sapiens, UniProt P0DP23); test: MicroScale Thermophoresis (MST) binding to fluorescently labeled calmodulin; settings: 10 nM labeled calmodulin, 25 °C
T1 construct: purchased Enzo Life Sciences, Lausen, Switzerland
Protocol: Human calmodulin (Enzo Life Sciences, Lausen, Switzerland) was labeled using the RED-NHS Labeling kit (NanoTemper Technologies). The labeling reaction was performed according to the manufacturer's instructions in the supplied labeling buffer applying a concentration of 20 μM protein (molar dye : protein ratio ≈ 2 : 1) at RT for 30 min. Unreacted dye was removed with the supplied dye removal columns equilibrated with MST buffer (50 mM TrisHCl pH 7.5, 150 mM NaCl, 10 mM MgCl2). The label : protein ratio was determined using photometry at 650 and 280 nm. Thereby, a ratio of 0.8 was typically achieved. The labeled calmodulin was adjusted to 20 nM with MST buffer. […]
For thermophoresis, each ligand dilution was mixed with one volume of labeled calmodulin, which leads to a final concentration of fluorescently labeled calmodulin of 10 nM and final ligand concentrations ranging from 15.3 nM to 250 μM. […] Thermophoresis was measured using a Monolith NT.115 instrument (NanoTemper Technologies GmbH) at an ambient temperature of 25 °C with 5 s/30 s/5 s laser off/on/off times, respectively. […] Data of three independently pipetted measurements were analyzed (NT.Analysis software version 1.5.41, NanoTemper Technologies) using the signal from Thermophoresis + T-Jump. […]

CALM1 (calmodulin) [1] = target: T2, CALM1 (calmodulin) (Homo sapiens, UniProt P0DP23); test: Isothermal titration calorimetry (ITC) with calmodulin; settings: 50 μM calmodulin in water, 25 °C, pH 6.5, read-out: KD (binding affinity to calmodulin by isothermal titration calorimetry)
Protocol: ITC experiments were performed using a MicroCal ITC200 from GE Healthcare. 27c and 28c were dissolved in water to a concentration of 0.7 and 0.6 mM, respectively. Calmodulin was dissolved in water at 50 μM. Optionally CaCl2 (final concentration 500 μM) or EDTA (final concentration 1 mM) were added. The peptide solution was injected into the calmodulin solution (2.5 μL of peptide per injection at an interval of 180 s, a total of 15 injections into the cell volume of 200 μL, with stirring speed of 800 rpm, at 25 °C). […] The experimental data were fitted to a theoretical titration curve (“one set of sites” model) using software supplied by Microcal, with n (number of binding sites per monomer), ΔH (binding enthalpy, kcal mol^–1) and Ka (association constant, M^–1), as adjustable parameters. Thermodynamic parameters were calculated from the Gibbs free energy equation, ΔG = ΔH – TΔS = –RT ln Ka, where ΔG, ΔH, and ΔS are the changes in free energy, enthalpy, and entropy of binding, respectively. T is the absolute temperature, and R = 1.98 cal mol^–1 K^–1.

[2] = Human serum stability assay; type: in vitro ADME; settings: 24 h, 37 °C, 200 μM peptide
Protocol: Human serum was diluted 1 : 4 in DMEM. Selected peptide was diluted in TRIS buffer to a concentration of 400 μM. Aliquots of peptide solution (50 μL) were added to aliquots of serum (50 μL) in sterile Eppendorf tubes, to reach a peptide concentration of 200 μM during the assay. Samples were incubated at 37 celsius degree under gentle stirring (350 rpm). Different samples (triplicate) were quenched at different time points (0/1/3/6/24 h) by precipitating serum proteins through the addition of ZnSO4·7H2O (0.1 M, 100 μL) and cooling down in ice bath. Protein precipitates were pelleted under centrifugation and the supernatants were sampled and evaporated to dryness in a centrifugal evaporator. Samples were resuspended in a H2O/ACN (4 : 1) mixture and centrifuged again to remove residual protein precipitate. Supernatants were then sampled and analysed by LC-MS. Experiment controls included a precipitation control for each peptide, to test their resistance to the protein precipitation conditions, and serum blanks, to check reproducibility over different serum batches. Two peaks originating from DMEM, surviving the incubation in serum and the protein precipitation conditions were used as internal standard.

[3] = Water solubility (stated in words); type: physicochemical
CALM1 (calmodulin) [4] = target: T2, CALM1 (calmodulin); test: Capture compound mass spectrometry (CCMS) proteome profiling in HeLa cell lysate; type: binding; parameters: endogenous in cells; host or cells: HeLa cell lysate; settings: probe 5 μM, competitor 240 μM, enrichment >2-fold, triplicate
Protocol: Capture experiments were carried out in PCR strips according to the general CCMS procedure.[48] 400 μg of HeLa cell lysate at 10 μg μL^–1 was pipetted for each set in triplicate. To the competition samples, 240 μM of BBP-competitor was added as a final concentration and incubated for 30 min at 4 °C. Assay and competition samples were then incubated with BBP-capture compounds or BBP-scaffold controls at a final concentration of 5 μM for 1 hour at 4 °C on a rotating axis and irradiated for 10 min at 310 nm in a caproBox™ (caprotec bioanalytics GmbH) to promote covalent cross-linking. Streptavidin-coated magnetic beads (Invitrogen) were added to the samples and further rotated for 1 hour at 4 °C. The beads were collected using a caproMag (caprotec bioanalytics GmbH) and washed 4 times with washing buffer (caprotec bionanalytics GmbH) followed by 3 times washing with 80% acetonitrile and lastly resuspended in MS-grade water. For tryptic digestion, the magnetic beads were incubated with trypsin in 50 mM ammonium bicarbonate for 16 hours at 37 °C. The supernatant was recovered, evaporated and stored at –20 °C until mass spectrometry analysis.
Mass Spectrometry: Tryptic digests were analyzed by online nanoflow liquid chromatography tandem MS (LC-MSn) on an UltiMate 3000 RSLCnano System (Dionex, part of Thermo Fisher Scientific, Germany) coupled to a LTQ-Orbitrap Velos instrument (Thermo Fisher Scientific, Germany) through a Proxeon nanoelectrospray ion source (Proxeon, part of Thermo Fisher Scientific, Germany). For chromatographic separation samples were first loaded on a reversed phase (RP) precolumn (Acclaim PepMap100, 5 μm, 100 Å, 100 μm i.d. × 20 mm) and separated on a RP analytical column (Acclaim PepMap RSLC C18, 2 μm, 100 Å, 75 μm i.d. × 150 mm, Dionex, part of Thermo Fisher Scientific, Germany) performing a 96 min gradient (5–45 % acetonitrile, 0.1% formic acid). MS detection was performed in the data-dependent mode allowing to automatically switch between Orbitrap-MS and LTQ-MS/MS acquisition in a top 20 configuration at 60 K resolution for a full scan with subsequent collision induced dissociation (CID) fragmentation. Full scan MS spectra (from m/z 300–2000) were acquired in the Orbitrap analyzer after accumulation to a target value of 1 × 10^6 in the linear ion trap. The most intense ions (up to twenty, depending on signal intensity) with charge state ≥2 were sequentially isolated at a target value of 5000 and fragmented in the linear ion trap using low energy CID with normalized collision energy of 35%. […] All MS/MS data were analyzed using Andromeda implemented in MaxQuant.[33] […] The label free quantification option was selected with a maximal retention time window of 2 min for the alignment between LC-MS/MS runs.

Kd (Human calmodulin (CALM1); MST buffer pH 7.5, read-out: KD (binding affinity to calmodulin by microscale thermophoresis)): 4.5 ± 1.1 µM | Kd (CALM1 (calmodulin) [1]): 0.8 ± 0.05 µM | Stability upon incubation in human serum [2]: entirely stable
Compound: NCCCC[C@@H]1NC(=O)CSC[C@H]2NC(=O)[C@@H](Cc3c[nH]c4ccccc34)NC(=O)[C@H](CCCCN)NC(=O)[C@H](CCC(=O)NCCCC[C@@H](C(=O)NCC(N)=O)NC(=O)[C@H](Cc3c[nH]c4ccccc34)NC2=O)NC1=O [27c, K^2E^1Kwz^2WK^1G] ({CH2CO}-KEK[dW][dC]WKG-NH2; lactam 2-7; thioether N-5)

KD (binding affinity to calmodulin by microscale thermophoresis) (Human calmodulin (CALM1); MST buffer pH 7.5): no measurable affinity | Kd (CALM1 (calmodulin) [1]): 6.8 ± 0.6 µM
Compound: N=C(N)NCCC[C@@H]1NC(=O)CSC[C@H]2NC(=O)[C@@H](Cc3ccccc3)NC(=O)[C@H](CCCNC(=N)N)NC(=O)[C@H](CCC(=O)NCCCC[C@@H](C(=O)NCC(N)=O)NC(=O)[C@H](Cc3ccccc3)NC2=O)NC1=O [28c, R^2E^1Rfz^2FK^1G] ({CH2CO}-RER[dF][dC]FKG-NH2; lactam 2-7; thioether N-5)

Water solubility [3]: water insoluble
Compound: CC(C)C[C@H]1NC(=O)CC[C@@H]2NC(=O)[C@@H]3CCCN3C(=O)[C@@H](Cc3ccccc3)NC(=O)[C@@H](CCCCNC(=O)[C@@H](C)NC2=O)NC(=O)CNC1=O [compound 1, l^1Gk^2fPE^1a^2] ([dL]G[dK][dF]PE[dA]; lactam 3-C, N-6)

Stability upon incubation in human serum [2]: stable
Compound: CC(C)C[C@@H]1NC(=O)CC[C@@H]2NC(=O)[C@@H]3CCCN3C(=O)[C@@H](Cc3ccc(O)cc3)NC(=O)[C@@H](CCCCNC(=O)[C@H](C)NC2=O)NC(=O)CNC1=O [compound 15, L^1Gk^2yPE^1A^2] (LG[dK][dY]PEA; lactam 3-C, N-6)

CALM1 (calmodulin) identified as target by CCMS (CALM1 (calmodulin) [4]): specifically targeted
Compound: K^2E^1Kwz^2WK^1GBGGK(biot) [27x]

CALM1 (calmodulin) identified as target by CCMS (CALM1 (calmodulin) [4]): specifically targeted
Compound: K^2E^1Kwz^2WK^1GFGGK(biot) [27s]

CALM1 (calmodulin) identified as target by CCMS (CALM1 (calmodulin) [4]): did not indicate this target
Compound: R^2E^1Rfz^2FK^1GBGGK(biot) [28x]

CALM1 (calmodulin) identified as target by CCMS (CALM1 (calmodulin) [4]): did not indicate this target
Compound: R^2E^1Rfz^2FK^1GFGGK(biot) [28s]
